# Data taken from US8192962B2, “Processes for detecting toxic substances” (Daikin Industries, Ltd., priority 2001, dated 2012).
# Several values for one entry are separate records, joined by “and”; a condition that tells them apart may be missing. Identical values can stand only once.
# Tested on: DNA repair protein genes
# Assay: DNA chip mRNA expression in yeast, DNA repair protein genes (Table 3)
# Type: cell-based, Saccharomyces cerevisiae S288C
# Settings: incubated two hours, concentrations as in the 1st table
# Method in brief: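 Whole-genome yeast DNA chip hybridization (65° C., >12 h) of Cy-labeled cDNA from S288C cells exposed 2 h at 25° C. to a sub-lethal toxicant dose in YPD; value is intensity relative to chemical-free control.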
compound,measurement,setting,value
"CCCCC[C@H](O)CC(=O)CCc1ccc(O)c(OC)c1 [(13), gingerol]",The level of expressed mRNA in the presence of chemical substance/The level of expressed mRNA in the absence of chemical substance,yeast gene YDL200C,1.1
same,The level of expressed mRNA in the presence of chemical substance/The level of expressed mRNA in the absence of chemical substance,yeast gene YEL019C,1.0
same,The level of expressed mRNA in the presence of chemical substance/The level of expressed mRNA in the absence of chemical substance,yeast gene YGL058W,1.0
same,The level of expressed mRNA in the presence of chemical substance/The level of expressed mRNA in the absence of chemical substance,yeast gene YIL072W,1.4
same,The level of expressed mRNA in the presence of chemical substance/The level of expressed mRNA in the absence of chemical substance,yeast gene YLR233C,1.0
same,The level of expressed mRNA in the presence of chemical substance/The level of expressed mRNA in the absence of chemical substance,yeast gene YLR288C,0.7
same,The level of expressed mRNA in the presence of chemical substance/The level of expressed mRNA in the absence of chemical substance,yeast gene YMR284W,1.0
same,The level of expressed mRNA in the presence of chemical substance/The level of expressed mRNA in the absence of chemical substance,yeast gene YNL312W,0.7
same,The level of expressed mRNA in the presence of chemical substance/The level of expressed mRNA in the absence of chemical substance,yeast gene YPL164C,1.0
same,The level of expressed mRNA in the presence of chemical substance/The level of expressed mRNA in the absence of chemical substance,yeast gene YPR025C,1.1
"Oc1cc(Cl)c(Cl)cc1Cl [(6), 2,4,5-trichlorophenol]",The level of expressed mRNA in the presence of chemical substance/The level of expressed mRNA in the absence of chemical substance,yeast gene YAL015C,0.7
same,The level of expressed mRNA in the presence of chemical substance/The level of expressed mRNA in the absence of chemical substance,yeast gene YBL019W,1.0
same,The level of expressed mRNA in the presence of chemical substance/The level of expressed mRNA in the absence of chemical substance,yeast gene YBR073W,0.7
same,The level of expressed mRNA in the presence of chemical substance/The level of expressed mRNA in the absence of chemical substance,yeast gene YCR014C,1.1
same,The level of expressed mRNA in the presence of chemical substance/The level of expressed mRNA in the absence of chemical substance,yeast gene YDL017W,1.1
same,The level of expressed mRNA in the presence of chemical substance/The level of expressed mRNA in the absence of chemical substance,yeast gene YDL059C,1.2
same,The level of expressed mRNA in the presence of chemical substance/The level of expressed mRNA in the absence of chemical substance,yeast gene YDL200C,0.6
same,The level of expressed mRNA in the presence of chemical substance/The level of expressed mRNA in the absence of chemical substance,yeast gene YDR054C,1.9
same,The level of expressed mRNA in the presence of chemical substance/The level of expressed mRNA in the absence of chemical substance,yeast gene YDR369C,0.6
same,The level of expressed mRNA in the presence of chemical substance/The level of expressed mRNA in the absence of chemical substance,yeast gene YEL019C,1.5
same,The level of expressed mRNA in the presence of chemical substance/The level of expressed mRNA in the absence of chemical substance,yeast gene YEL037C,0.6
same,The level of expressed mRNA in the presence of chemical substance/The level of expressed mRNA in the absence of chemical substance,yeast gene YER162C,0.7
same,The level of expressed mRNA in the presence of chemical substance/The level of expressed mRNA in the absence of chemical substance,yeast gene YFL014W,9.3
same,The level of expressed mRNA in the presence of chemical substance/The level of expressed mRNA in the absence of chemical substance,yeast gene YGL058W,1.0 and 1.5
same,The level of expressed mRNA in the presence of chemical substance/The level of expressed mRNA in the absence of chemical substance,yeast gene YGL091C,1.6
same,The level of expressed mRNA in the presence of chemical substance/The level of expressed mRNA in the absence of chemical substance,yeast gene YGL127C,0.6
same,The level of expressed mRNA in the presence of chemical substance/The level of expressed mRNA in the absence of chemical substance,yeast gene YGL163C,0.9
same,The level of expressed mRNA in the presence of chemical substance/The level of expressed mRNA in the absence of chemical substance,yeast gene YGL249W,2.5
same,The level of expressed mRNA in the presence of chemical substance/The level of expressed mRNA in the absence of chemical substance,yeast gene YGR180C,0.6 and 1.0
same,The level of expressed mRNA in the presence of chemical substance/The level of expressed mRNA in the absence of chemical substance,yeast gene YGR231C,1.9
same,The level of expressed mRNA in the presence of chemical substance/The level of expressed mRNA in the absence of chemical substance,yeast gene YGR258C,2.2
same,The level of expressed mRNA in the presence of chemical substance/The level of expressed mRNA in the absence of chemical substance,yeast gene YHR164C,1.4
same,The level of expressed mRNA in the presence of chemical substance/The level of expressed mRNA in the absence of chemical substance,yeast gene YIL036W,1.8
same,The level of expressed mRNA in the presence of chemical substance/The level of expressed mRNA in the absence of chemical substance,yeast gene YIL072W,1.2
same,The level of expressed mRNA in the presence of chemical substance/The level of expressed mRNA in the absence of chemical substance,yeast gene YIL143C,1.4
same,The level of expressed mRNA in the presence of chemical substance/The level of expressed mRNA in the absence of chemical substance,yeast gene YIL153W,0.9
same,The level of expressed mRNA in the presence of chemical substance/The level of expressed mRNA in the absence of chemical substance,yeast gene YIR002C,2.2
same,The level of expressed mRNA in the presence of chemical substance/The level of expressed mRNA in the absence of chemical substance,yeast gene YJL026W,1.0
same,The level of expressed mRNA in the presence of chemical substance/The level of expressed mRNA in the absence of chemical substance,yeast gene YJR046W,2.0
same,The level of expressed mRNA in the presence of chemical substance/The level of expressed mRNA in the absence of chemical substance,yeast gene YJR052W,1.4
same,The level of expressed mRNA in the presence of chemical substance/The level of expressed mRNA in the absence of chemical substance,yeast gene YKL145W,2.1
same,The level of expressed mRNA in the presence of chemical substance/The level of expressed mRNA in the absence of chemical substance,yeast gene YLR103C,1.1
same,The level of expressed mRNA in the presence of chemical substance/The level of expressed mRNA in the absence of chemical substance,yeast gene YLR233C,0.8
same,The level of expressed mRNA in the presence of chemical substance/The level of expressed mRNA in the absence of chemical substance,yeast gene YLR288C,1.2
same,The level of expressed mRNA in the presence of chemical substance/The level of expressed mRNA in the absence of chemical substance,yeast gene YML032C,0.9
same,The level of expressed mRNA in the presence of chemical substance/The level of expressed mRNA in the absence of chemical substance,yeast gene YMR035W,1.5
same,The level of expressed mRNA in the presence of chemical substance/The level of expressed mRNA in the absence of chemical substance,yeast gene YMR072W,1.6 and 2.4
same,The level of expressed mRNA in the presence of chemical substance/The level of expressed mRNA in the absence of chemical substance,yeast gene YMR096W,2.2
same,The level of expressed mRNA in the presence of chemical substance/The level of expressed mRNA in the absence of chemical substance,yeast gene YMR284W,0.8 and 1.2
same,The level of expressed mRNA in the presence of chemical substance/The level of expressed mRNA in the absence of chemical substance,yeast gene YNL213C,1.7
same,The level of expressed mRNA in the presence of chemical substance/The level of expressed mRNA in the absence of chemical substance,yeast gene YNL250W,0.8
same,The level of expressed mRNA in the presence of chemical substance/The level of expressed mRNA in the absence of chemical substance,yeast gene YNL261W,1.3
same,The level of expressed mRNA in the presence of chemical substance/The level of expressed mRNA in the absence of chemical substance,yeast gene YNL312W,1.7
same,The level of expressed mRNA in the presence of chemical substance/The level of expressed mRNA in the absence of chemical substance,yeast gene YOL043C,0.8
same,The level of expressed mRNA in the presence of chemical substance/The level of expressed mRNA in the absence of chemical substance,yeast gene YOR005C,1.3
same,The level of expressed mRNA in the presence of chemical substance/The level of expressed mRNA in the absence of chemical substance,yeast gene YOR386W,3.3
same,The level of expressed mRNA in the presence of chemical substance/The level of expressed mRNA in the absence of chemical substance,yeast gene YPL022W,5.2
same,The level of expressed mRNA in the presence of chemical substance/The level of expressed mRNA in the absence of chemical substance,yeast gene YPL164C,1.7
same,The level of expressed mRNA in the presence of chemical substance/The level of expressed mRNA in the absence of chemical substance,yeast gene YPL194W,1.1
same,The level of expressed mRNA in the presence of chemical substance/The level of expressed mRNA in the absence of chemical substance,yeast gene YPR025C,0.9
